ChEMBL document CHEMBL1138935, “Lead optimization providing a series of flavone derivatives as potent nonsteroidal inhibitors of the cytochrome P450 aromatase enzyme” (J Med Chem, 2006)

molecular target: T1, CYP17 (steroid 17-alpha-hydroxylase/17,20 lyase) (Homo sapiens, UniProt P05093); test: Inhibition of CYP17 at 2.5 uM
T1 sequence (P05093 whole entry): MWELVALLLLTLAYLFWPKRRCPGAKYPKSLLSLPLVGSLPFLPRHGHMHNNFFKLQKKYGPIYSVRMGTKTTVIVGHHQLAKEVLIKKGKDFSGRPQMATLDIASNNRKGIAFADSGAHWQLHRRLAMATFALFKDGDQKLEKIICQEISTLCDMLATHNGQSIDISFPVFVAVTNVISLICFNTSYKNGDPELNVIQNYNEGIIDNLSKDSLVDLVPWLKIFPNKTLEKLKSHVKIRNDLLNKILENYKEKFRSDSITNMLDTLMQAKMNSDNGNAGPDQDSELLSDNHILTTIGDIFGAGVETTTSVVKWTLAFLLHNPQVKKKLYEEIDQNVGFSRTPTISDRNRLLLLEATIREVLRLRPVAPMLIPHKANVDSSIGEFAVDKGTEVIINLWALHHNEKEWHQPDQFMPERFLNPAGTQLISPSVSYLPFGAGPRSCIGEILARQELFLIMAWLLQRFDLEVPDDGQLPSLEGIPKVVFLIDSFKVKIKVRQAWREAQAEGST

Question: For `COc1ccc2c(=O)c(Cn3ccnc3)c(-c3ccc(Br)cc3)oc2c1`, which inhibition at 2.5 µM is on record?
Answer: 29%

Question: With `COc1ccc2c(=O)c(Cn3ccnc3)c(-c3ccc([N+](=O)[O-])cc3)oc2c1` as the compound, how does the inhibition at 2.5 µM read?
Answer: 9%

Question: Which inhibition at 2.5 µM does the source give for `COc1ccc(-c2oc3ccccc3c(=O)c2Cn2ccnc2)cc1` here?
Answer: 26%

Question: `COc1ccc2c(=O)c(Cn3ccnc3)c(-c3ccc(C#N)cc3)oc2c1` was tested. Which inhibition at 2.5 µM did it give?
Answer: 12%

Question: Which inhibition at 2.5 µM does the source give for `O=c1c(Cn2ccnc2)c(-c2ccc(Br)cc2)oc2ccccc12` here?
Answer: 27%
